These results are taken from US5344843A, “Cat-1 inhibitors, pharmaceutical compositions and methods of use” (Hoffman-La Roche Inc., priority 1992, dated 1994).

As usually defined, the IC50 is the midpoint of a concentration-inhibition curve.

The target of experiment [1] is T1, CAT-1 (carnitine acyltransferase 1) (Rattus norvegicus, UniProt Q63704).
T1 construct: This preparation is used as the isolated mitochondrial preparation; from tissue; host or cells: rat heart (atria removed), isolated mitochondria
T1 sequence (Q63704 1-772): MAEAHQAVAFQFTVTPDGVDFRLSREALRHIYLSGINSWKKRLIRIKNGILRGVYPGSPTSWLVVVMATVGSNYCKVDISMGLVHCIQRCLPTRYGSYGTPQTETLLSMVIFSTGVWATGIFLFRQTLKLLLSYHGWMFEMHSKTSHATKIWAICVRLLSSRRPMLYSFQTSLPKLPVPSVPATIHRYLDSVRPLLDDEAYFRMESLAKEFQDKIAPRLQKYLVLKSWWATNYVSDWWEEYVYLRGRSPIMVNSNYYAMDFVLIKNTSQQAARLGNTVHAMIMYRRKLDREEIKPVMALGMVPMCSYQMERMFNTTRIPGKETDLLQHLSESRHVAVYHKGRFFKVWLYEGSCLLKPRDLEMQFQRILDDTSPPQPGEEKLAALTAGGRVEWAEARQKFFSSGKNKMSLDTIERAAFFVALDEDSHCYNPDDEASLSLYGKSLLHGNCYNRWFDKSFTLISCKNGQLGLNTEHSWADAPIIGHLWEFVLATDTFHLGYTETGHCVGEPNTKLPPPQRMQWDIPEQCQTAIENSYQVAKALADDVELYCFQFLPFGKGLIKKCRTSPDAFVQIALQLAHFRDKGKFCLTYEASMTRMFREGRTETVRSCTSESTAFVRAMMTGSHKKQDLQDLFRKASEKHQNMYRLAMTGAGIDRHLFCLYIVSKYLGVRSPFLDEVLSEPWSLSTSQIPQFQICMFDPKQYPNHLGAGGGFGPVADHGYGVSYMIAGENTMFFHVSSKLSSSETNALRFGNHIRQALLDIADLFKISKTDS
Nature of the experiment: Primary Screen--Inhibition of CAT-1 in isolated mitochondria. The settings on record: rat heart mitochondria, reduction of palmitoyl carnitine formation by 50%; read-out: Primary Screen IC50. It counts as biochemical.

The target of experiment [2] is T1, CAT-1 (carnitine acyltransferase 1). In words: Secondary Screen--Inhibition of CAT-1 in intact cardiac myocytes (hypoxia-induced increase in long-chain acylcarnitines). Type of experiment: cell-based. The settings on record: isolated rat cardiac myocytes, 50% inhibition of hypoxia-induced increase in long-chain acylcarnitines.
Description: Secondary Screen--Inhibition of CAT-1 in intact Cardiac Myocytes
(a) Preparation of Isolated Rat Cardiac Myocytes
Four hearts are excised from anesthetized rats and perfused retrogradly via the Langendorf technique. Each heart receives 100 mL of Krebs (NaCl, 118.4 mM; KCL, 4.6 mM; NaH2 PO4, 1.0 mM; NaHCO3, 20 mM; MgSO4, 2 mM; CaCl2, 50 μM; glucose, 11.0 mM), 100 mL of Ca++ free Krebs and finally 100 mL of 0.5% collagenase (Boehringer Mannhelm, type 1) in Hepes (NaCl, 115 mM; KCl, 5 mM; sucrose, 35 mM; glucose, 10 mM; Hepes, 10 mM; taurine, 4 mM; MgSO4, 2 mM; CaCl2, 50 μM). After these perfusions, the hearts are chopped into pieces, approx. 0.5 cm×0.5 cm and placed in four 125 mL plastic bottles along with 25 mL of collagenase/Hepes situated in a water bath maintained at 35° C. The pieces of cardiac tissue in each bottle are agitated by using a Harvard respirator connected to four glass syringes, which sucks the tissue up and down each tube during each respiratory cycle. After fifteen minutes, the collagenase/Hepes is removed and replaced with fresh collegenase/Hepes and the process repeated. The collegenase/Hepes from the subsequent fifteen minute harvests are centrifuged at 500 g to pellet the cells which are then resuspended in Hepes buffer. After six harvests, all cells are pelleted, resuspended in 2×26.5 mL of Hepes plus BSA (350 mg) and layered on top of 2×percoll gradients (21.15 mL percoll, 2.35 mL NaCl, 6 drops acetic acid). This is centfifuged at 3000 g for eight minutes forming a percoll gradient which results in viable cells being separated from damaged cells. The viable cells are removed, washed with Hepes and finally resuspended in 25 mL of Hepes.
The isolated cardiac myocytes (2 mL; approximately 1×10^6 cells) are separated into six glass pods. Into four of these are placed selected concentrations of the compound to be tested, and the cells are incubated for twenty minutes, after which the pods are centrifuged at 300 g for three minutes. 300 μL of normoxic Hepes is placed in one of the pods not containing compound and then all pods are placed in a hypoxic chamber (N2 atmosphere). Oxygen is fed via small bore steel tubes to the pod containing the normoxic buffer, while the other five pods receive pre-purified argon (99.998% pure). After two minutes, Hepes (pre-gassed with argon for at least twelve hours) is fed into the five hypoxic pods. This hypoxic environment (pO2 <10 mm Hg) is maintained for twenty minutes, after which the cells and pods are frozen by contact with a metal block precooled in liquid N2. The pods are then removed from the chamber and stored at -70° C. The carnitine assay is performed, as described below in (c), to determine the amount of long-chain acylcarnitine in the cells from the normoxic, hypoxic and hypoxic plus compound samples. […] Thus the IC50 in this screen is the concentration of test compound which produces a 50% inhibition of the hypoxia-induced increase in long-chain acylcarnitines.
(c) Long-chain Acylcarnitine Assay.
The frozen cell samples are thawed, mixed and homogenized with 40 μL of 70% PCA. The homogenate is transferred to eppendorf tubes while the homogenization tube and the glass pod is rinsed with 500 μL of 7% PCA, with the rinse being added to the eppendorf tube. This is then centrifuged at 1000 g for two minutes to pellet the precipitate (containing the long-chain acylcarnitine) and the supernatant is discarded. The pellet is washed twice with 500 μL of 7% PCA, the supernatants being discarded. The pellet is then hydrolyzed (to separate the acyl unit from carnitine to yield free carnitine) by the addition of 200 μL of aleionized H2 O and 50 μL of 5N KOH and incubated at 70° C. for ninety minutes.

Structures can show the parent of a compound that is named as a salt.

As to `O=C(O)C(=O)c1ccc(OCCOC2CCCCCCC2)cc1` [Example 101, 4-[[2-(cyclooctyloxy)ethyl]oxy]-alpha-oxobenzeneacetic acid], the concentration for half-maximal inhibition (IC50) in experiment [1] is 900 nM; in experiment [2] it was 50000 nM.
Turning to `O=C(OCCOCCOCCO)C(=O)c1ccc(OCCOc2ccc3ccccc3c2)cc1` [Example 105, 4-[[2-(2-naphthalenyloxy)ethyl]oxy]-alpha-oxobenzeneacetic acid 2-[2-(2-hydroxyethoxy)ethoxy]ethyl ester], the IC50 in experiment [1] was 40 nM; in experiment [2] it was 75000 nM.
`O=C(O)C(=O)c1ccc(C#CCOc2ccc3ccccc3c2)cc1` [Example 142, 4-[3-(2-naphthalenyloxy)-1-propynyl]-alpha-oxobenzeneacetic acid]: the half-inhibitory concentration (IC50) is 1800 nM in experiment [1] and 20000 nM in experiment [2].
On the same counts, the results for `CCC(C)(C)C(=O)Oc1cccc2ccc(OCCOc3ccc(C(=O)C(=O)O)cc3)cc12` [Example 134, 4-[[2-[8-(2,2-dimethyl-1-oxobutoxy)-2-naphthalenyloxy]ethyl]oxy]-alpha-oxobenzeneacetic acid] are 600 nM and 400 nM.
With `CCC(C)(C)C(=O)OCc1cccc(C)c1OCCOc1ccc(/C(=N/OC)C(=O)O)cc1` [Example 304, (Z)-4-[2-[2-[(2,2-Dimethyl-1-oxobutoxy)methyl]-6-methylphenyloxy]ethoxy]-alpha-methoxyiminobenzeneacetic acid], the IC50 in experiment [1] was 3300 nM; in experiment [2] it was 5000 nM.
Taken in the same sequence, the figures for `O=C(O)C(=O)c1ccc(OCCOc2ccc3ccccc3c2)c(F)c1` [Example 199, 3-fluoro-4-[2-(2-naphthalenyloxy)ethoxy]-alpha-oxobenzeneacetic acid] were 170 nM and 600 nM.
Taken in the same sequence, the figures for `O=C(O)C(=O)c1ccc(OCCCCOc2ccccc2)cc1` [Example 71, alpha-oxo-4-[[(4-phenoxy)butyl]oxy]benzeneacetic acid] were 400 nM and 20000 nM.
Taken in the same sequence, the figures for `O=C(O)C(=O)c1ccc(OCC(=O)c2ccc3ccccc3c2)cc1` [Example 157, 4-[2-(2-naphthalenyl)-2-oxoethoxy]-alpha-oxobenzeneacetic acid] were 50 nM and 300 nM.
On to `O=C(O)C(=O)c1ccc(C(=O)NCCOc2ccc3ccccc3c2)cc1` [Example 177, 4-[[[2-(2-naphthalenyloxy)ethyl]amino]carbonyl]-alpha-oxobenzeneacetic acid], for which the IC50 turned out to be 400 nM in experiment [1] and 25000 nM in experiment [2].
On the same counts, the results for `O=C(NO)C(=O)c1ccc(OCCOc2ccc3ccccc3c2)s1` [Example 300, N-hydroxy-5-[2-(2-naphthalenyloxy)ethoxy]-alpha-oxo-2-thiopheneacetamide] are 2100 nM and 5000 nM.
Taken in the same sequence, the figures for `O=C(O)C(=O)c1ccc(OCCCc2ccc3ccccc3c2)cc1` [Example 94, 4-[[3-(2-naphthalenyl)propyl]oxy]-alpha-oxobenzeneacetic acid] were 80 nM and 12000 nM.
Taken in the same sequence, the figures for `O=C(O)C(=O)c1ccc(OCCOC23CC4CC(CC(C4)C2)C3)cc1` [Example 103, alpha-oxo-4-[[2-[tricyclo(3.3.1.1-3,7)dec-1-yloxy]ethyl]oxy]benzeneacetic acid] were 1500 nM and 40000 nM.
Regarding `O=C(O)C(=O)c1ccc(OCCOc2ccc3ccccc3c2)cc1F` [Example 197, 2-fluoro-4-[2-(2-naphthalenyloxy)ethoxy]-alpha-oxobenzeneacetic acid], the IC50 in experiment [1] was 160 nM; in experiment [2] it was 6000 nM.
On the same counts, the results for `CO/N=C(/C(=O)O)c1ccc(OCCOc2ccc3ccccc3c2)s1` [Example 306, (Z)-alpha-(methoxyimino)-5-[2-(2-naphthalenyloxy)ethoxy]-2-thiopheneaceticacid (2:1) hydrate] are 300 nM and 7000 nM.
On the same counts, the results for `O=C(O)C(=O)c1ccc(OCCOc2ccc3ccccc3c2)cc1Cl` [Example 187, 2-chloro-4-[2-(2-naphthalenyloxy)ethoxy]-alpha-oxobenzeneacetic acid] are 300 nM and 9000 nM.
On the same counts, the results for `O=C(O)C(=O)c1ccc(OCCCc2ccccc2)cc1` [Example 23, 4-[(3-phenylpropyl)oxy]-alpha-oxobenzeneacetic acid] are 500 nM and 37000 nM.
For `CN(C)CCOC(=O)C(=O)c1ccc(OCCOc2ccc3ccccc3c2)s1` [Example 6, 5-[[2-(2-naphthalenyloxy)ethyl]oxy]-alpha-oxo-2-thiopheneacetic acid 2-(dimethylamino)ethyl ester], the IC50 in experiment [1] is 40 nM; in experiment [2], 300 nM.
`O=C(O)C(=O)c1ccc(OCCSc2ccc3ccccc3c2)cc1` [Example 90, 4-[[2-(2-naphthalenylthio)ethyl]oxy]-alpha-oxobenzeneacetic acid]: the figures for the IC50 in experiment [1] and in experiment [2] were 270 nM and 28000 nM, respectively.
Taken in the same sequence, the figures for `CO/N=C(\C(=O)O)c1ccc(OCCOc2ccc3ccccc3c2)s1` [Example 307, (E)-alpha-(methoxyimino)-5-[2-(2-naphthalenyloxy)ethoxy]-2-thiopheneaceticacid] were 1500 nM and 5000 nM.
On the same counts, the results for `O=C(O)C(=O)c1ccc(OCCOc2ccc3ccccc3c2)c([N+](=O)[O-])c1` [Example 179, 4-[2-(2-naphthalenyloxy)ethoxy]-3-nitro-alpha-oxobenzeneacetic acid] are 200 nM and 8000 nM.
On the same counts, the results for `O=C(O)C(=O)c1ccc(OCCCCc2ccccc2)cc1` [Example 25, 4-[(4-phenybutyl)oxy]-alpha-oxobenzeneacetic acid] are 2000 nM and 12000 nM.
`O=C(O)C(=O)c1ccc(OC/C=C/c2ccc3ccccc3c2)cc1` [Example 96, (E)-4-[[3-(2-naphthalenyl)-2-propenyl]oxy]-alpha-oxobenzeneacetic acid]: the IC50 in experiment [1] amounted to 65 nM; in experiment [2], 7000 nM.
Taken in the same sequence, the figures for `O=C(O)C(=O)c1ccc(OCCOC2CCCCC2)cc1` [Example 99, 4-[[2-(cyclohexyloxy)ethyl]oxy]-alpha-oxobenzeneacetic acid] were 900 nM and 20000 nM.
Taken in the same sequence, the figures for `O=C(O)C(=O)c1ccc(OCCSc2ccccc2)cc1` [Example 82, alpha-oxo-4-[[2-(phenylthio)ethyl]oxy]benzeneacetic acid] were 300 nM and 17500 nM.
On the same counts, the results for `N[C@H](C(=O)O)c1ccc(OCCOC2CCCCCCC2)cc1` [Example 18, (S)-alpha-amino-4-[[2-(cyclooctyloxy)ethyl]oxy]benzeneaceticacid hydrochloride] are 37400 nM and 5000 nM.
With `CN(O)C(=O)C(=O)c1ccc(OCCOc2ccc3ccccc3c2)cc1` [Example 299, N-hydroxy-N-methyl-4-[2-(2-naphthalenyloxy)ethoxy]-alpha-oxobenzeneacetamide], the IC50 in experiment [1] turned out to be 1900 nM; in experiment [2], 8000 nM.
On the same counts, the results for `O=C(OCC(O)CO)C(=O)c1ccc(OCCOc2ccc3ccccc3c2)s1` (racemic) [Example 5, rac.-5-[[2-(2-naphthalenyloxy)ethyl]oxy]-alpha-oxo-2-thiopheneacetic acid 2,3-dihydroxypropyl ester] are 40 nM and 250 nM.
Regarding `O=C(O)C(=O)c1ccc(OCCOc2cccc3ccccc23)cc1` [Example 84, 4-[[2-(1-naphthalenyloxy)ethyl]oxy]-alpha-oxobenzeneacetic acid], the IC50 in experiment [1] is 80 nM; in experiment [2], 4000 nM.
On the same counts, the results for `CCCc1c(OCCCOc2ccc(C(=O)C(=O)O)cc2)ccc(C(C)=O)c1O` [Example 257, 4-[3-(4-acetyl-3-hydroxy-2-propylphenoxy)propoxy]-alpha-oxobenzeneacetic acid] are 380 nM and 100 nM.
As to `CC(C)c1cccc(-c2ccc(F)cc2)c1/C=C/COc1ccc(C(=O)C(=O)O)cc1` [Example 229, (E)-4-[3-[4'-fluoro-3-(1-methylethyl)[1,1'-biphenyl]-2-yl]-2-propenyloxy]-alpha-oxobenzeneacetic acid], the IC50 in experiment [1] came to 9000 nM; in experiment [2], 1000 nM.
Taken in the same sequence, the figures for `O=C(O)C(=O)c1ccc(OCCCCOc2ccc3ccccc3c2)cc1` [Example 88, 4-[[4-(2-naphthalenyloxy)butyl]oxy]-alpha-oxobenzeneacetic acid] were 170 nM and 3500 nM.
In the case of `CC(C)(C)c1ccc(C(=O)COc2ccc(C(=O)C(=O)O)cc2)cc1` [Example 286], the concentration for half-maximal inhibition (IC50) in experiment [1] came out at 300 nM; in experiment [2], 1200 nM.
